# Measurements taken from patent US9376499B2, “PAR-1 activation by metalloproteinase-1 (MMP-1)” (Tufts Medical Center, Inc., priority 2009, dated 2016).
# No end group written: not given here.
# Tests used:
# platelets [1] = experiment: Collagen-dependent aggregation of gel-filtered human platelets (light transmittance); type: cell-based; settings: for inhibition (loss) of collagen-induced platelet aggregation: 5 μg/ml collagen, 1,10-PA 100 μM, MMP-200 200 nM, FN-439 3 μM, RWJ-56110 1 μM, PAR1 Ab 75 μg/ml, pepducins 3 μM, PPACK 200 μM, hirudin 1 U/ml
# Experimental: Platelet pellets and their supernatants were prepared as follows. […] following established informed consent procedures. […] Alternatively, whole blood was obtained from Hartley Sprague guinea pigs (drawn from the vena cava) into 3% citrate plus 10 U/ml heparin. Washed platelets from the guinea pigs were prepared in PIPES buffer. Platelet aggregation was measured with a Chronolog 560VS/490-2D aggregometer using modified PIPES buffer as a blank. Samples were incubated for 5 min in the presence of inhibitors and 1.8 mM CaCl2 prior to addition of agonist. All reactions were in final volumes of 250 μl at 37° C. while stirring at 900 rpm.
# The effect of pharmacologic blockage of metalloproteases or PAR1 on collagen-dependent platelet aggregation was then tested (see FIG. 5). Gel-filtered platelets from healthy individuals (supplemented with 0.3 mg/ml fibrinogen) were challenged with 5 μg/ml collagen in the presence or absence (0.2% DMSO vehicle) of the indicated inhibitors and allowed to stir at 900 rpm in an aggregometer cuvette (250 μL) at 37° C.
# In FIG. 5A, platelet aggregation was monitored by light transmittance.
# Rho-GTP = experiment: Collagen-induced Rho-GTP activity in platelets (western blot); type: cell-based, human; settings: 5 or 20 μg/ml collagen or 10 nM MMP-1; ARC 0.5 μM, aspirin 1 mM
# Experimental: In FIG. 5C, platelets were treated as in FIG. 5B and then Rho GTP activity was assessed by western blot.
# Representative blots are shown at the bottom of FIGS. 5B-D. Data are the mean±s.d. of three experiments. P*<0.01, #<0.05.
# PAR1 [2] = experiment: Release of PAR1 N-terminal cleavage peptide from gel-filtered platelets (dot blot, IIaR-A antibody); type: cell-based, human; settings: 5 μg/ml collagen, 10 min, 37° C.; Ab 20 μg/ml; ARC 0.5 μM; ASA 1 mM
# Text: To further understand how collagen is able to activate significant amounts of endogenous MMP-1 collagenase activity on the surface of platelets, experiments were devised to determine if PAR-1 is cleaved in either an autocrine or paracrine manner following exposure to collagen. Using a monoclonal antibody raised against the amino-terminal thrombin-cleavage peptide region of PAR1, residues 32-46 (Loew et al., 2000), the relative abilities of thrombin, MMP-1 and collagen to cause cleavage of platelet PAR1 was assessed. Gel filtered platelets were treated for 10 min with thrombin (3 nM), MMP-1 (3 nM), collagen (5 μg/ml), in the presence or absence (PBS buffer) of 0.00013 U hirudin or 5 μM FN-439 at 37° C. Supernatants were concentrated 20-fold and applied to nitrocellulose membranes, then probed with the IIaR-A monoclonal antibody. The PAR1 N-terminal thrombin deavage peptide (A26-R41) and PAR1 flexible linker peptide (N-acetyl-T67-L84 -C) (Kuliopulos et al., 1999) served as positive and negative controls (100 ng), respectively.
# These platelets were then stimulated with collagen (5 μg/ml) for 10 min. at 37° C. Supernatants were concentrated 20-fold and applied to nitrocellulose membranes, then probed with the IIaR-A monoclonal antibody. […] FN-439, or an MMP1-blocking antibody (20 μg/ml) but not by thrombin inhibitor, hirudin (see FIG. 1E, FIG. 1G).
# p38 MAPK = experiment: Collagen-induced phospho-p38 MAPK in platelets (western blot); type: cell-based, human; settings: 5 or 20 μg/ml collagen or 10 nM MMP-1; ARC 0.5 μM, aspirin 1 mM
# Experimental: The effect of pharmacologic blockage of metalloproteases or PAR1 on collagen-dependent platelet aggregation was then tested (see FIG. 5). […] Platelets were pre-incubated for 5 min with the thrombin inhibitors PPACK (200 μM) or hirudin (1 U/ml), the Zn-chelator 1,10-phenanthroline (1,10-PA; 100 μM), the broad spectrum metalloprotease inhibitor MMP-200 (200 nM), the MMP-1 inhibitor FN-439 (3 μM), the PAR1 ligand binding site inhibitor RWJ-56110 (1 μM), the PAR1 blocking antibody (75 μg/ml), the PAR1 pepducin lipopeptides P1pal-12 (3 μM) or P1pal-7 (3 μM), the PAR4 pepducin lipopeptide P4pal-10 (3 μM), MMP-8 inhibitor (25 nM) or MMP9/13 inhibitor (10 nM).
# In FIG. 5B, platelets were treated as in FIG. 5A and then lysed with Laemmli sample buffer 5 min after addition of collagen, p38 MAPK activity was then assessed by western blot with a p38 MAPK phospho-Ab and total p38 loading was determined using a p38 MAPK antibody.
# [3] = Carotid artery FeCl3 injury arterial thrombosis model; type: in vivo, guinea pig; settings: bivalirudin 0.18 mg/kg i.v.; from 13 min without
# Text: To assess the efficacy on arterial thrombosis by blockade of thrombin, MMP-1, or PAR1, a standard carotid artery FeCl3 injury model was used in guinea pigs. FeCl3 causes denudation of the artery and exposure of type I collagen and other subendothelial matrix proteins. The effects of blocking thrombin with bivalirudin, MMP-1 with FN-439, and PAR1 with either the small molecule antagonist RWJ-56110 or the P1pal-7 pepducin on arterial thrombosis were then compared using a dopier probe.
# For these arterial thrombosis experiments, 10 min after i.v. administration of vehicle (−), bivalirudin, RWJ-56110, P1 pal-7 or FN-439 (n=4-5) through the jugular vein at the indicated concentrations, the right carotid arteries were injured for 20 min using a 24 mm^2 piece of Bio-Rad Trans-Blot paper soaked in 20% FeCl3. Arterial flow 5 mm distal to the site of injury was measured with a 0.5 V Doppler probe (Transonic Systems). An arterial occlusion was defined as a flow rate of <0.01 V for ≧5 min. Doppler measurements were terminated at the 30 min time point following injury (* designates p<0.05).
# PAR1 [4] = target: T1, PAR1 (Homo sapiens, UniProt P25116); experiment: Platelet shape change (decrease in light transmittance); type: cell-based; settings: washed human platelets pretreated with 2 mM EGTA
# T1 construct: able to cleave PAR1 on the surface of human platelets; endogenous in cells; host or cells: gel-filtered or washed human platelets
# T1 sequence (P25116 22-425): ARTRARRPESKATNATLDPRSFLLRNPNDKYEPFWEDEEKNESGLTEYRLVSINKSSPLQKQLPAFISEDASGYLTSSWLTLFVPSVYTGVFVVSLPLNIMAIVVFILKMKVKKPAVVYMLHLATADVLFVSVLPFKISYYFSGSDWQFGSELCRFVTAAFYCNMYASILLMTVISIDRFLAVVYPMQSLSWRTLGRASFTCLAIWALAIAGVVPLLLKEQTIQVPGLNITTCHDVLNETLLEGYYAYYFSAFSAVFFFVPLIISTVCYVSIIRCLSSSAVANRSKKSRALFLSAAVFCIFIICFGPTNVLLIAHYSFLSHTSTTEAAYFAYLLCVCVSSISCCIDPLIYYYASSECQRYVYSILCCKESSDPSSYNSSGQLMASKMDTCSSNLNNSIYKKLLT
# Experimental: In FIG. 3C, the ability of the […] peptide (PR-TRAP) to induce a change in platelet shape was determined. Washed human platelets were pretreated with 2 mM EGTA and then treated with the indicated agonists in the presence or absence of 1 μM RWJ-56110 while stirring at 1100 rpm. The decrease in light transmittance is an indication of the platelet shape change reaction.
# In FIG. 4B, the ability of MMP-1 to induce platelet shape change was determined. Washed human platelets were pretreated with 2 mM EGTA and then challenged with MMP-1 in the presence or absence of 1 μM RWJ-56110 while stirring at 1100 rpm. Shape change was measured as described above.
# platelets [5] = experiment: Platelet thrombus formation on collagen surface under arterial flow, heparin-anticoagulated whole blood; type: cell-based, human; settings: heparin 10 U/mL; shear rate 1,000 s-1; FN-439 3 μM, RWJ-56110 1 μM, pepducins 3 μM, aspirin 1 mM
# Experimental: Following incubation with inhibitors, the blood was perfused over a glass slide coated with fibrillar collagen type I.
# A flow chamber (Glycotech) with Type-I fibrillar collagen-coated glass slides was mounted on the stage of an IMT-2 inverted microscope (Olympus) equipped with Retiga 1300 digital camera (QImaging) and 40× objective. One of the flow chamber inlets was connected to a syringe pump (Harvard Apparatus) calibrated to create a shear rate of 1,000^s-1. The whole blood pretreated with the various pharmacologic inhibitors was then perfused over the collagen-coated glass slide. After 2-15 min of perfusion, blood was removed from the flow chamber by gentle displacement with PIPES buffer and images of 8-10 fields were acquired using OpenLab software (Improvision). Acquired images were further analyzed using NIH Image 1.63 software. Images were first sharpened and the edges of separate platelets and platelet aggregates were determined. Following the adjustment of threshold, images were converted into the binary format, and the particle analysis function was activated to highlight the regions covered by platelets with the sensitivity set to one single adherent thrombocyte. For the conversion of pixels into square micrometers, a calibration curve was built using 2.5, 6, 20, 25, and 45 μm polystyrene beads (Polyscience) using acquisition conditions identical to the experimental. The mean area of formed thrombus was determined at 7 min. Area measurements in FIG. 6B represent the mean±s.e. of three separate experiments from five different blood donors.
# PAR1 [6] = target: T1, PAR1; experiment: PAR1-dependent RhoA activation (Rho-GTP) in platelets by tethered-ligand peptides; type: cell-based; settings: 30 μM peptide, 5 min, 37° C.
# Experimental: Gel-filtered human platelets, supplemented with 0.3 mg/mL fibrinogen, were treated with 0.2% DMSO vehicle, or 30 μM SFLLRN (TRAP), PR-TRAP or reversed peptide (RP-TRAP), for 5 min at 37° C. in presence or absence of 1 μM RWJ-56110 as indicated. Platelets were lysed and Rho-GTP and total Rho was determined by Western analysis as described in the Experimental Procedures. Western bands were quantified by densitometry and results expressed relative to fold-increase from basal.
# PAR1 [7] = target: T1, PAR1; experiment: p38 MAPK activation in platelets by tethered-ligand peptides; type: cell-based; settings: 5 min, 37° C.
# Experimental: In FIG. 3B, the effect of the […] peptide (PR-TRAP) on p38 MAPK in platelets was measured. Platelets were stimulated with different concentrations of PR-TRAP, RP-TRAP or TRAP as indicated for 5 min at 37° C. Platelets were lysed with Laemmli sample buffer and proteins assessed by Western blot of p38 MAPK activity with phospho-specific p38 MAPK antibody or total p38MAPK antibody.
compound,measurement,setting,value
"c1cnc2c(c1)ccc1cccnc12 [1,10-phenanthroline]",inhibition (loss) of collagen-induced platelet aggregation,platelets [1],80%
CSCCNc1nc(SCCC(F)(F)F)nc2c1ncn2[C@@H]1O[C@H](COP(=O)(O)OP(=O)(O)C(Cl)(Cl)P(=O)(O)O)[C@@H](O)[C@H]1O [AR-C69931MX],effect on activation of Rho-GTP,Rho-GTP,no effect
same,block of collagen-induced release of PAR1 N-terminal peptide,PAR1 [2],no effect
same,suppression of aggregation to collagen,"platelets [1]; ARC 0.5 μM, aspirin 1 mM",could still suppress
same,effect on activation of phospho-p38 MAPK,p38 MAPK,no effect
NC(N)=NCCC[C@H](NC(=O)[C@@H]1CCCN1C(=O)[C@H](N)Cc1ccccc1)C(=O)CCl [PPACK],inhibition (loss) of collagen-induced platelet aggregation,platelets [1],no effect
Bivalirudin: thrombin inhibitor (Angiomax),mean arterial occlusion time,[3],20 min
DPR-TRAP: peptide corresponding to cleavage at L38↓D39PRSFLLRN (DPRSFLLRN; PAR1 N-terminal extracellular mutant),"agonist activity, platelet shape change",PAR1 [4],nearly no activity
"P1pal-12: PAR1 i3 loop pepducin lipopeptide, RCLSSSAVANRS (SEQ ID NO. 3), palmitate (also: palmitate, site not given here)",inhibition (loss) of collagen-induced platelet aggregation,platelets [1],identical levels of inhibition as blocking MMP-1
same,attenuation of growth rate and size of platelet aggregate strings,platelets [5],~75%
"P4pal-10: PAR4 pepducin lipopeptide (SGRRYGHALR; also: lipopeptide ('pal'), lipid and site not given here)",inhibition (loss) of collagen-induced platelet aggregation,platelets [1],~10%
"PR-TRAP: synthetic peptide PRSFLLRN (SEQ ID NO:1), MMP1-generated tethered ligand of PAR1 (listed as Homo sapiens)","agonist activity, PAR1-dependent Rho signaling in platelets",PAR1 [6],full agonist
same,"agonist activity, p38 MAPK signaling in platelets",PAR1 [7],full agonist
same,"agonist activity, platelet shape change",PAR1 [4],activated changes in platelet shape
R-TRAP: peptide corresponding to cleavage at LDP40↓R41SFLLRN (RSFLLRN),"agonist activity, platelet shape change",PAR1 [4],partial agonist activity
RP-TRAP: control peptide in which the first two amino acid residues were reversed (RPSFLLRN; PAR1 N-terminal extracellular mutant),"agonist activity, PAR1-dependent Rho signaling in platelets",PAR1 [6],did not stimulate
same,"agonist activity, p38 MAPK signaling in platelets",PAR1 [7],did not stimulate
same,"agonist activity, platelet shape change",PAR1 [4],did not stimulate
